Assay results reported in patent publication US20080138403A1, “PHARMACEUTICAL DOSAGE FORMS OF OXCARBAZEPINE” (Sun Pharmaceutical Industries Ltd., priority 2006, published 2008).

Columns and labels:
[1] = particle size by Malvern laser diffraction; type: physicochemical
Description: The particle size of oxcarbazepine may be measured using laser light diffraction technique based instrument such as a Malvern Mastersizer Microplus apparatus. Other known methods of measuring particle size may also be used. The particle size distribution of oxcarbazepine was checked after subjecting the slurry of oxcarbazepine and the hydrophilic polymer in a solvent, to mixing in a colloid mill. The particle size was determined by Malvern laser diffraction technique. The particles were dispersed in an aqueous dispersion medium of Tween 20 (0.1 ml/litre).

[2] = cited from earlier work
[3] = Example 1 slurry after mixing in colloid mill, dispersed in aqueous Tween 20
[4] = oxcarbazepine used for the slurry of Example 2

Q: Which “Particle size D (v, 0.1) 10% particles undersized” value [1, 3] does the source give for `NC(=O)N1c2ccccc2CC(=O)c2ccccc21` [oxcarbazepine, 10,11-Dihydro-10-oxo-5H-dibenz [b,f]azepine-5-carboxamide] here?
A: The value was 6.93 μm.

Q: What about the “Particle size D (v, 0.5) 50% particles undersized” value [1, 3] of the same compound?
A: Its value is 20.56 μm.

Q: And the “Particle size D (v, 0.91) 90% particles undersized” value [1, 3]?
A: The value was 45.97 μm.

Q: What about the “median particle size D50” value [1, 4] of the same compound?
A: The value was 24.91 μm.

Q: And the “particle size D10” value [1, 4]?
A: Its value is 6.59 μm.

Q: And the “particle size D90” value [1, 4]?
A: The value was 63.31 μm.

Q: And the solubility in water [2]?
A: The solubility in water was “practically insoluble”.
